# Data taken from patent US6770632B1, “Folypolyglutamyl synthetase gene transfer to enhance antifolate” (priority 1999, dated 2004).
# Several values for one entry are separate records, joined by “and”; a condition that tells them apart may be missing. Identical values can stand only once. Like-named read-outs stand apart in the source and are kept apart here.
# How the values were obtained:
# [1] = system: 9L cells transfected with CD; details: 9L cells stably transfected with E. coli cytosine deaminase cDNA; cited from earlier work
# [2] = system: cocultures with nitroreductase-expressing cells; details: cited from earlier work
# [3] = system: rhabdomyosarcoma cell line; details: rhabdomyosarcoma cell line transfected with rabbit carboxylesterase cDNA; cited from earlier work
# 9L cells [4] = assay: Cell culture survival study, 9L cells; type: cell-based, rat; details: Rattus norvegicus, 4 h, 9L, read-out: ED50 (the source's name)
# Protocol: (§1) Cell Culture Survival Studies: Cells were plated in triplicate at 8×10^5 cells per 10-cm-diameter plate, and were allowed to adhere for 4 hours, after which the medium was replaced with medium containing MTX or EDX. […] Drug-free medium was then added, and three days later the cells were trypsinized and counted on a model ZM Coulter apparatus. Dose-response curves were generated using Sigma Plot 3.0, which employs curve-fitting parameters based on the Marquardt-Levenberg method (Marquardt, D. W., Siam, J., J. Soc. Indust. Appl. Math 11:431-441 (1963)).
# 9L/FPGS cells [5] = assay: Cell culture survival study, 9L/FPGS cells; type: cell-based, rat; details: for EC50: Rattus norvegicus, 4 h, 9L/FPGS, read-out: ED50 (the source's name)
# Protocol: as §1
# [6] = system: cocultures of 9L/FPGS and 9L cells; assay: Bystander effect study, cocultures of 9L/FPGS and 9L cells; type: cell-based, rat; details: for EC50: Rattus norvegicus, 4 h, 4 hrs drug exposure, FIG. 4b, read-out: ED50 (the source's name); for transmission efficiency (TE): 4 hour pulses
# Protocol: For bystander effect studies, cells were plated in triplicate with varying combinations of 9L/FPGS and 9L cells such that the total number of cells was 8×10^5 per 10-cm-diameter plate. The same protocol of 4 hour cell adherence followed by 4 hour drug exposure, washes, growth in drug free medium for 3 days, and counting on a ZM coulter apparatus was then followed. […] Four mL conditioned medium+2 mL fresh medium were added to 10-cm-diameter plates containing 9L/BAG cells plated overnight (1000 cells/dish, with a clonogenic efficiency of approximately 20%). Six days later, the cells were fixed with 4% paraformaldehyde in PBS. Fixed cells were stained for LacZ by incubating overnight in a solution containing 35 mM potassium ferricyanide, 35 mM potassium ferrocyanide, 2 mM magnesium chloride, and 0.2% 5-bromo-4-chloro-3-indolyl-β-D galactoside (Xgal; Fisher Scientific Co.;Pittsburgh, Pa.) at pH=7.3 (Price, J., et al., Proceedings of the National Academy of Sciences USA 84:156-160 (1987)). The next day, blue colonies greater than 1 mm in diameter were counted.
# However, a more quantitative approach is to generate a dose-response curve for nontransfected cells, transfected cells, and a coculture and to calculate the transmission efficiency (TE) for the coculture (Friedlos, F., et al., Journal of Medicinal Chemistry 40:1270-1275 (1997)). [formula]
# The superscripts 0, N, and 100 designate the ED50 values for cultures containing 0, N, and 100% transfected cells.
# 9L/BAG cells = assay: Conditioned medium colony formation of 9L/BAG cells; type: cell-based, rat
# Protocol: Four mL conditioned medium+2 mL fresh medium were added to 10-cm-diameter plates containing 9L/BAG cells plated overnight (1000 cells/dish, with a clonogenic efficiency of approximately 20%). Six days later, the cells were fixed with 4% paraformaldehyde in PBS. […] The next day, blue colonies greater than 1 mm in diameter were counted.
# This conditioned medium was then added to 9L/BAG cells. A week later, the cells were stained for LacZ expression, which allowed colony formation to be assayed.
# subcutaneous 9L tumors = assay: Growth of subcutaneous 9L tumors in nude mice; type: in vivo; details: 3 mg/kg daily i.p.
# Protocol: (§2) In Vivo Experiments: 10^5 9L or 9L/FPGS cells or a mixture of 8×10^5 9L+2×10^5 9L/FPGS cells in 200 μL DMEM were injected subcutaneously into the flanks of six week old female nude mice (NCr/Sed, nu/nu, 20 gm; Massachusetts General Hospital breeding colony). After 14 days, when the tumors had reached an average volume of 60 mm^3, the mice were randomly divided into experimental groups with five mice per group. Intraperitoneal injections of varying MTX or EDX doses dissolved in 200 μL 0.9% NaCl were administered either daily or every third day. Tumor size was measured weekly using calipers. Tumor volume was calculated as length×width×height, as described previously (Takamiya, Y., et al., Journal of Neuroscience Research 33:493-503 (1992)).
# [7] = system: subcutaneous 9L/FPGS tumors; assay: Growth of subcutaneous 9L/FPGS tumors in nude mice; type: in vivo; details: 3 mg/kg daily i.p.
# Protocol: as §2
# [8] = system: mixed subcutaneous tumors 20% 9L/FPGS and 80% 9L cells; assay: Growth of mixed subcutaneous tumors (20% 9L/FPGS + 80% 9L) in nude mice; type: in vivo; details: 3 mg/kg daily i.p.
# Protocol: as §2
# FPGS = details: relative to MTX; cited from earlier work
# in vivo = details: nude, mouse, ip
# 9L cells [9] = assay: [3H]MTX accumulation and thin layer chromatography of MTX polyglutamates in 9L cells; details: 24 hour exposure to 2 μM MTX, TLC
# Protocol: (§3) Thin Layer Chromatography of MTX Metabolites: 10^6 9L or 9L/FPGS cells were plated in 6-cm diameter dishes and allowed to adhere for 4 hours, after which cells were incubated overnight with 2 μM 3′, 5′, 7-[^3H] methotrexate (Moravek Biochemicals; Brea, Calif.). Cells were then trypsinized, centrifuged, resuspended in 300 μL deionized water, and sonicated for 45 seconds at half-maximal power. Sonicated cells were centrifuged briefly to remove cellular debris, after which protein concentration was calculated using the Bradford protein assay. Proteins were precipitated with 1 mL methanol at −20° C. for 2 hr. Precipitated proteins were removed by centrifugation at 20,000 g for 30 min, and the supernatant was then concentrated to 30 μL under a stream of N2 at 37° C. on a Meyer N-Evap Analytical Evaporator (Organomation Associates Inc., Northborough, Mass.). A 1 μL aliquot was scintillation counted—cpm were converted into moles of drug taken up by determining the cpm of a known quantity of [^3H] MTX. […] Plates were eluted with a chloroforrn-methanol-acetic acid mixture (2:2:1) containing 20 mg/mL cetyl trimethylammonium bromide (Sigma). Following elution, the plates were placed under ordinary fluorescent light for 2 days, after which 20 nmol unlabelled standards were visualized under long-wave ultraviolet light. Plates were run in duplicate and the average RF values of the standards were: MTX=0.66; MTX-G1=0.59; MTX-G2=0.44, MTX-G3=0.33; MTX-G4=0.27; MTX-G5=0.25. Regions corresponding to where standards migrated were marked in the sample lane, scraped individually into scintillation vials, and counted. The amount of each radioactive metabolite in a sample lane was determined as a percentage of the total radioactivity recovered from that sample lane, after subtraction of the background counts obtained from lanes lacking radioactive sample.
# 9L/FPGS cells [10] = assay: [3H]MTX accumulation and thin layer chromatography of MTX polyglutamates in 9L/FPGS cells; details: 24 hour exposure to 2 μM MTX, TLC
# Protocol: as §3
# [11] = system: 9L cells transfected with HSV-TK; details: 9L cells stably transfected with HSV-TK cDNA; cited from earlier work
# [12] = 4 hour pulse, repeat of the dose-response curve (Table 3 footnote c)
# [13] = 4 hrs drug exposure, curves of FIG. 1 (MTX) / FIG. 3a (EDX)
smiles,measurement,setting,value
Nc1nc(=O)[nH]cc1F [5-fluorocytosine],ED50 shift nontransfected versus transfected cells,[1],80 fold
NC(=O)c1cc(N2CC2)c([N+](=O)[O-])cc1[N+](=O)[O-] [CB1954],TE values,[2]; 1% cocultures,above 50%
same,TE values,[2]; 10% cocultures,above 70%
CCc1c2c(nc3ccc(OC(=O)N4CCC(N5CCCCC5)CC4)cc13)-c1cc3c(c(=O)n1C2)COC(=O)[C@]3(O)CC [CPT-11],decrease in ED50 on transfection,[3],8 fold
"CCC(Cc1cnc2nc(N)nc(N)c2n1)c1ccc(C(=O)N[C@@H](CCC(=O)O)C(=O)O)cc1 (stereo partly shown) [EDX, Edatrexate]",EC50,9L cells [4]; [12],1200 nM
same,EC50,"9L cells [4]; 4 hrs drug exposure, bystander experiment FIG. 4b",895 nM
same,EC50,9L cells [4]; [13],1200 nM
same,survival,"9L/FPGS cells [5]; 9L/FPGS cells, 300 nM, 4 hour pulse",below 10%
same,range of concentrations with statistically significant difference in survival between 9L and 9L/FPGS,9L/FPGS cells [5]; 4 hour pulses,"10,000 fold"
same,difference in ED50 between 9L and 9L/FPGS,"9L/FPGS cells [5]; 4 hour pulses, FIG. 1 / FIG. 3A",67 fold
same,EC50,9L/FPGS cells [5]; [12],26 nM
same,EC50,"9L/FPGS cells [5]; 4 hrs drug exposure, bystander experiment FIG. 4a (MTX) / 4b (EDX)",20 nM
same,EC50,9L/FPGS cells [5]; [13],18 nM
same,EC50,[6]; coculture 1% 9L/FPGS,605 nM
same,EC50,[6]; coculture 10% 9L/FPGS,337 nM
same,EC50,[6]; coculture 20% 9L/FPGS,134 nM
same,transmission efficiency (TE),[6]; cocultures containing 1% 9L/FPGS cells,33.1% and 33%
same,transmission efficiency (TE),[6]; cocultures containing 10% 9L/FPGS cells,63.8% and 64%
same,transmission efficiency (TE),[6]; cocultures containing 20% 9L/FPGS cells,87%
same,9L/BAG colonies relative to conditioned medium from non-treated cells,9L/BAG cells; conditioned medium from 9L cells pulsed with 0.3 μM for 4 hours,83%
same,9L/BAG colonies relative to conditioned medium from non-treated cells,9L/BAG cells; conditioned medium from 9L/FPGS cells pulsed with 0.3 μM for 4 hours,47%
same,fold growth of tumor volume,subcutaneous 9L tumors; after three weeks,10 fold
same,fold growth of tumor volume,subcutaneous 9L tumors; after two weeks,8 fold
same,growth of tumor volume,[7]; after three weeks,doubled in volume
same,fold growth of tumor volume,[7]; after two weeks,less than 4 fold
same,fold growth of tumor volume,[8]; after three weeks,5 fold
same,fold growth of tumor volume,[8]; after two weeks,more than 4 fold
same,"Km of FPGS, lower than its Km for MTX",FPGS,4-5 fold
same,MTD,in vivo,3 mg/kg/day
CN(Cc1cnc2nc(N)nc(N)c2n1)c1ccc(C(=O)NC(CCC(=O)NC(CCC(=O)O)C(=O)O)C(=O)O)cc1 (stereo not shown) [MTX-G1],POLYGLUTAMATE DISTRIBUTION (percentages of total sample lane radioactivity),9L cells [9],29%
same,POLYGLUTAMATE DISTRIBUTION (percentages of total sample lane radioactivity),9L/FPGS cells [10],22%
CN(Cc1cnc2nc(N)nc(N)c2n1)c1ccc(C(=O)NC(CCC(=O)NC(CCC(=O)NC(CCC(=O)O)C(=O)O)C(=O)O)C(=O)O)cc1 (stereo not shown) [MTX-G2],POLYGLUTAMATE DISTRIBUTION (percentages of total sample lane radioactivity),9L cells [9],15%
same,POLYGLUTAMATE DISTRIBUTION (percentages of total sample lane radioactivity),9L/FPGS cells [10],19%
CN(Cc1cnc2nc(N)nc(N)c2n1)c1ccc(C(=O)NC(CCC(=O)NC(CCC(=O)NC(CCC(=O)NC(CCC(=O)O)C(=O)O)C(=O)O)C(=O)O)C(=O)O)cc1 (stereo not shown) [MTX-G3],POLYGLUTAMATE DISTRIBUTION (percentages of total sample lane radioactivity),9L cells [9],13%
same,POLYGLUTAMATE DISTRIBUTION (percentages of total sample lane radioactivity),9L/FPGS cells [10],18%
CN(Cc1cnc2nc(N)nc(N)c2n1)c1ccc(C(=O)NC(CCC(=O)NC(CCC(=O)NC(CCC(=O)NC(CCC(=O)NC(CCC(=O)O)C(=O)O)C(=O)O)C(=O)O)C(=O)O)C(=O)O)cc1 (stereo not shown) [MTX-G4],POLYGLUTAMATE DISTRIBUTION (percentages of total sample lane radioactivity),9L cells [9],13%
same,POLYGLUTAMATE DISTRIBUTION (percentages of total sample lane radioactivity),9L/FPGS cells [10],28%
CN(Cc1cnc2nc(N)nc(N)c2n1)c1ccc(C(=O)NC(CCC(=O)NC(CCC(=O)NC(CCC(=O)NC(CCC(=O)NC(CCC(=O)NC(CCC(=O)O)C(=O)O)C(=O)O)C(=O)O)C(=O)O)C(=O)O)C(=O)O)cc1 (stereo not shown) [MTX-G5],POLYGLUTAMATE DISTRIBUTION (percentages of total sample lane radioactivity),9L cells [9],1%
same,POLYGLUTAMATE DISTRIBUTION (percentages of total sample lane radioactivity),9L/FPGS cells [10],3%
Nc1nc(O)c2ncn(COC(CO)CO)c2n1 [ganciclovir],ED50 shift nontransfected versus transfected cells,[11],500 fold
